Results from patent publication US20160220569A1, “CDK4/6 Inhibitor Dosage Formulations For The Protection Of Hematopoietic Stem And Progenitor Cells During Chemotherapy” (G1 Therapeutics, Inc., priority 2015, published 2016).
“And” between values parts separate entries of the source, which are not always exact repeats. Equal values may be shown once.

Columns and labels:
[1] = 14-day toxicokinetic study in dogs; assay type: in vivo, dogs (Beagle); details: male and female dogs
Procedure: Dogs in the control group were not exposed to Compound 1 and so were a true control group.
The required weight of Compound 1 di-HCl was added to an appropriate size vessel. […] The vessel was placed on a stirring hotplate and the formulation heated to a temperature of 30-35° C. The contents of the vessel were allowed to stir at 30-35° C. or a stir plate until all test article appeared to be dissolved, and for a period of at least 1 hour. The pH of the formulation was verified and adjusted to 4.0-4.5 using 1N HCl or 1N NaOH as required. The formulation was transferred into an appropriate size graduated cylinder. Sufficient vehicle control will be added to the cylinder to obtain the final desired concentration of formulated test article. The completed stock formulation was dispensed into several amber glass bottles as aliquots for each day of dosing. These formulations were stored at controlled room temperature (15-30° C.) until used for dose administration.
The beagle dog was chosen for this study as it is a species that is used for non-clinical toxicity and pharmacokinetic evaluations and satisfies the regulatory requirement for non-clinical safety studies in a non-rodent species. […]

[2] = PK comparison of Compound 1 clinical data with literature PK of palbociclib; assay type: in vivo, human
[3] = Red blood cell and neutrophil counts after single dose in dogs; assay type: in vivo; details: out to 15 days
mouse splenocytes = assay: Interferon gamma from splenocytes stimulated ex vivo with anti-CD3/antiCD28 after 5FU; assay type: in vivo, C57BL/6 Mice; details: mice pretreated with 100 mg/kg Compound 1, 5FU 50 mg/kg
Description: FIG. 59 is a bar graph of interferon gamma concentration (pg/ml) at day 2 and 7 for mouse splenocytes that were isolated and stimulated ex vivo with anti-CD3/antiCD28.

[4] = Hematology (ANC, lymphocytes, hemoglobin, platelets) during etoposide and carboplatin chemotherapy; assay type: in vivo, human; details: 200 mg/m^2 with etoposide and carboplatin
Description: As shown in FIG. 63A the absolute neutrophil count though affected by chemotherapy rarely dipped below the G1 phase. As shown in FIG. 63B the lymphocyte count though affected by chemotherapy rarely dipped below the G1 phase. As shown in FIG. 63C the hemoglobin concentration though affected by chemotherapy rarely dipped below the G1 phase. As shown in FIG. 63D the platelet count though affected by chemotherapy rarely dipped below the G1 phase.

Target lesions = assay: Tumor response, Compound 1 with topotecan; assay type: in vivo, human; details: for Cycle 2 Target Lesion Sum: individual subjects
Procedure: In Cohort 2 there were 3 subjects who received 1.25 mg/m^2 of topotecan once daily on Days 1 to 5. In Cohort 3 there were 4 subjects who received 0.75 mg/m^2 of topotecan once daily on Days 1 to 5. […] Target lesions were summed and response tabulated as follows: […]

[5] = Nonclinical IV and oral pharmacokinetics in dogs; assay type: in vivo; details: dog, plasma
[6] = Repeat-dose toxicity in rats (IV 7 days, oral 14 days); assay type: in vivo
Procedure: (§1) The magnitude and/or duration of this effect differed among cell lineages but was dose-related in all lineages. Effects on hematopoiesis were readily monitored by peripheral blood cell counts and were reversible when dosing stopped.
(§2) In both species, the toxicity profile was similar and the repeat-dose toxicity studies identified no observed adverse effect levels (NOAELs). […] This IV NOAEL was the basis for selecting a starting dose of 6 mg/m^2 for the first clinical trial, which is 1/10th of the lowest safe dose level in any animal study.
In rats, the toxicity profile with oral administration was similar to that with IV administration, except that pulmonary macrophage accumulation occurred with oral administration for 14 days at ≧5 mg/kg (≧30 mg/m^2) but not with IV administration for 7 days at up to 25 mg/kg (≧150 mg/m^2). Based on this finding, the oral NOAEL was 2 mg/kg (≧12 mg/m^2).

[7] = Repeat-dose IV toxicity in dogs; assay type: in vivo
Procedure: as §1, §2

[8] = human, plasma, 96 mg/m2, 96 mg/m^2 IV
[9] = Compound 1 200 mg/m^2 with topotecan, 2 to 4 cycles

CN1CCN(c2ccc(Nc3ncc4cc5n(c4n3)C3(CCCCC3)CNC5=O)nc2)CC1 [Compound 1, 2′-((5-(4-methylpiperazin-1-yl)pyridin-2-yl)amino)-7′,8′-dihydro-6′H-spiro[cyclohexane-1,9′-pyrazino[1′,2′:1,5]pyrrolo[2,3-d]pyrimidin]-6′-one]
systemic exposure with increasing dose level [1]: increased roughly proportionally
CL/F ([2]; 96 mg/m^2 IV): 121 L/h
accumulation in blood plasma on consecutive days ([2]; Compound 1): does not show accumulation
CL/F ([2]; […]^2 IV): 126 L/h
AUC(0-inf) [2, 8]: 1380 ng·h/mL
Cmax [2, 8]: 932 ng/mL
half-life [2, 8]: 8.6 h
half-life ([2]; human, plasma, iv, […]2): 7.9 h
effect on red blood cells and neutrophils [3]: minimal
interferon gamma levels (mouse splenocytes): did not decrease significantly
myelotoxicity (ANC, lymphocyte count, hemoglobin, platelet count) [4]: no clinically relevant myelotoxicity
Cycle 2 Target Lesion Sum (Target lesions; Compound 1 200 mg/m^2 followed by 1.25 mg/m^2 Topotecan): 22 and 123
Cycle 2 Target Lesion Sum (Target lesions; Compound 1 200 mg/m^2 followed by .75 mg/m^2 Topotecan): 157
subjects with partial responses (Target lesions; [9]): 3 subjects
subjects with stable disease (Target lesions; [9]): 3 subjects
half-life ([5]; both sexes, after IV administration): ~4 h
bioavailability ([5]; oral 10 mg/kg): 30.2%
bioavailability ([5]; oral 90 mg/kg): 17.1%
dose with clinically significant leukopenia ([6]; 7 days): ≥ 150 mg/m^2
dose with pulmonary macrophage accumulation ([6]; oral administration for 14 days): ≥ 5 mg/kg
NOAEL at 7 days ([6]; rat, in vivo, IV, read-out: NOAEL for IV administration): 10 mg/kg
NOAEL at 14 days ([6]; rat, in vivo, oral): 2 mg/kg
dose with clinically significant leukopenia ([7]; dog, in vivo, 7 days): 300 mg/m^2
dose leading to morbidity and mortality ([7]; dogs, daily doses for 6 days): 900 mg/m^2
